Measured values taken from BindingDB's records for doi:10.1021/jm300025r (Astrazeneca, 2012).

Key:
[1] = Inhibition of CHK1 in human HT29 cells assessed as check point abrogation
[2] = Inhibition of CHK1 in human HT29 cells assessed as abrogation of camptothecin induced check point

EC50 [1] [nM]	EC50 [2] [nM]	Structure (SMILES)
2200	20	NC(=O)Nc1cc(-c2ccccc2F)sc1C(=O)N[C@H]1CCCNC1
1900	40	N#Cc1cccc(-c2cc(NC(N)=O)c(C(=O)N[C@H]3CCCNC3)s2)c1
600	30	N#Cc1ccc(-c2cc(NC(N)=O)c(C(=O)N[C@H]3CCCNC3)s2)cc1
1500	30	NC(=O)Nc1sc(-c2cc(F)cc(F)c2)cc1C(=O)N[C@H]1CCCNC1
1400	190	NC(=O)Nc1sc(-c2ccc(F)cc2F)cc1C(=O)N[C@H]1CCCNC1
5700	150	NC(=O)Nc1sc(-c2ccc(Cl)c(Cl)c2)cc1C(=O)N[C@H]1CCCNC1
1700	8	N#Cc1ccc(-c2cc(C(=O)N[C@H]3CCCNC3)c(NC(N)=O)s2)cc1 [(S)-1-(5-(4-cyanophenyl)-3-(piperidin-3-ylcarbamoyl)thiophen-2-yl)urea]
13000	20	NC(=O)Nc1cc(-c2ccc(F)cc2)sc1C(=O)N[C@H]1CCCNC1
1200	40	NC(=O)Nc1sc(-c2cccc(Cl)c2)cc1C(=O)N[C@H]1CCCNC1 [1-(3-((S)-piperidin-3-ylcarbamoyl)-5-(3-chlorophenyl)thiophen-2-yl)urea]
1500	60	NC(=O)Nc1cc(-c2cccc(F)c2F)sc1C(=O)N[C@H]1CCCNC1
590	20	NC(=O)Nc1cc(-c2ccccc2)sc1C(=O)N[C@H]1CCCNC1
> 13000	940	N#Cc1cccc(-c2cc(C(=O)N[C@H]3CCCNC3)c(NC(N)=O)s2)c1
600	30	NC(=O)Nc1sc(-c2ccc(F)cc2)cc1C(=O)N[C@H]1CCCNC1 [(S)-1-(5-(4-fluorophenyl)-3-(piperidin-3-ylcarbamoyl)thiophen-2-yl)urea]
840	20	NC(=O)Nc1sc(-c2cccc(F)c2)cc1C(=O)N[C@H]1CCCNC1 [1-(3-((S)-piperidin-3-ylcarbamoyl)-5-(3-fluorophenyl)thiophen-2-yl)urea]
1100	20	NC(=O)Nc1cc(-c2ccc(F)cc2F)sc1C(=O)N[C@H]1CCCNC1
700	10	NC(=O)Nc1cc(-c2cccc(Cl)c2)sc1C(=O)N[C@H]1CCCNC1
2500	60	NC(=O)Nc1cc(-c2cc(F)cc(F)c2)sc1C(=O)N[C@H]1CCCNC1
5800	200	NC(=O)Nc1cc(-c2ccc(Cl)c(Cl)c2)sc1C(=O)N[C@H]1CCCNC1
1060	80	NC(=O)Nc1sc(-c2ccccc2F)cc1C(=O)N[C@H]1CCCNC1 [1-(3-((S)-piperidin-3-ylcarbamoyl)-5-(2-fluorophenyl)thiophen-2-yl)urea]
1800	100	NC(=O)Nc1sc(-c2cccc(F)c2F)cc1C(=O)N[C@H]1CCCNC1
